Each structure is given as a SMILES string.

One experiment relates to PficOrco/PficOR8. Description: Fluo4-AM calcium fluorescence, FlexStation-3, HEK293 cells. Type of experiment: cell-based, Planococcus ficus. Conditions: agonist; doxycycline-induced cells; 0.5 % DMSO.
Another experiment deals with PficOrco/PficOR6. The experiment is described as above. The class given is cell-based, Planococcus ficus. Conditions: agonist; doxycycline-induced cells; 0.5 % DMSO.

For `CCCC(=O)OCC(CC=C(C)C)=C(C)C` [2-isopropyliden-5-methyl-4-hexen-1-yl butyrate], the EC50 in the experiment on PficOrco/PficOR8 stood at 8.6 µM.
On to `C=C(C)C(CC=C(C)C)COC(=O)C=C(C)C` (stereo not drawn) [lavandulyl senecioate], for which the values for the EC50 in the experiment on PficOrco/PficOR6 and in the experiment on PficOrco/PficOR8 were 4.6 µM and 52.6 µM, respectively.

In general, EC50 refers to the concentration at which the effect is half-maximal.

Source of the values: paper PMC10837065 (Current Research in Insect Science, 2024).
